In patent US8188268B2, “Porous crystalline saccharide, its preparation and uses” (Kabushiki Kaisha Hayashibara Seibutsu Kagaku Kenkyujo, priority 2005, dated 2012):
Read-outs that look alike come from different tables or passages of the source.

Legend:
Format in all cases: physicochemical
[1] = Pore size distribution by the mercury filling method; settings: for Median pore diameter: control maltose values are from space between particles, not pores
[2] = Oil-keeping ability with salad oil; parameters: key to Oil-keeping ability: (5 g salad oil / g saccharide added at endpoint) x 100; settings: for Oil-keeping ability: (5 g salad oil / amount of added saccharide) x 100
Protocol: The oil-keeping ability of each crystalline saccharide was measured using the porous anhydrous crystalline trehalose prepared by treating at 70° C. for 60 min in Example 1, the control hydrous crystalline trehalose, and the control anhydrous crystalline trehalose as crystalline trehalose samples; and the porous anhydrous crystalline maltose prepared by the method in Example 3, the control hydrous crystalline β-maltose, and the control anhydrous crystalline α-maltose, and the control anhydrous crystalline β-maltose as crystalline maltose samples, and the results were compared.
The measurement of the oil-keeping ability of the crystalline saccharide was carried out according to the method disclosed in Japanese Patent Kokai No. 31,650/84. Five grams of “NISSHIN SALAD OIL”, a salad oil commercialized by Nisshin OiliO Group, Ltd., Tokyo, Japan, was placed in a 50-ml plastic container, and then gradually admixed with each powdery crystalline saccharide with stirring. […] When the amount of the mixed saccharide is further increased, the agglomerate increase in solidity and then loosen. The point that the agglomerate is loosened is estimated to be the endpoint and the oil-keeping ability was calculated using the following formula. Oil-Keeping Ability =(The amount of salad oil(5 g)/the amount of added PCS*)×100 *: Powdery crystalline saccharide tm Formula 1

[3] = Dissolution test against cold water at 10° C.; settings: for Time required for dissolution, No. 1 / Time required for dissolution, No. 2 / Time required for dissolution, No. 3 / Time required for dissolution, No. 4 / Time required for dissolution, No. 5 / Time required for dissolution, Average: 20 ml water 10° C., about 300 rpm, 0.5 g trehalose or 0.2 g maltose; for Time required for dissolution, Average: average of 5; for Dissolution in cold water in comparison with controls: cold water 10° C.
Protocol: A dissolution test against cold water at 10° C. was carried out using the porous anhydrous crystalline trehalose prepared by treating at 70° C. for 60 min in Example 1, the porous anhydrous crystalline maltose prepared by the method in Example 3, and the porous hydrous crystalline maltose prepared by the method in Example 5, as samples. The results were compared with those of the controls, anhydrous crystalline trehalose, hydrous crystalline trehalose, and hydrous crystalline maltose.
Twenty milliliters of 10° C.-cold water was placed in a test tube with an internal diameter of 18 mm, and then stirred using a stirring bar. A crystalline saccharide sample was put into the test tube, and the time required for the complete dissolution (for the disappearance of precipitate particles) was measured. The amount of samples was set to be 0.5 g in the case of trehalose and to be 0.2 g in the case of maltose, and the stirring rate was set to be about 300 rpm in any case. The measurement of time for dissolution under the above conditions was carried out 5-times at each sample.

[4] = Specific surface area by nitrogen adsorption isotherms (BET); settings: for Specific surface area: nitrogen adsorption isotherms, BET
Protocol: Specific surface area of the porous anhydrous crystalline trehalose was measured by the nitrogen adsorption isotherms using “MODEL ASAP-2400”, a specific surface area/pore size distribution analyzer commercialized by Micromeritics, Georgia, USA. […] The result was analyzed by the BET (Brunnauer, Emmet, and Teller) method. The commercial anhydrous crystalline trehalose, a reagent grade, commercialized by Hayashibara Biochemical Laboratories Inc., Okayama, Japan, was used as a control. […] Further, those pore size distribution charts are in FIG. 19. […] The results of the analysis on the specific surface area and the pore size distribution are summarized in Table 7, and the pore size distribution chart was in FIG. 24. As a control, “MALTOSE OM”, a hydrous crystalline maltose product with maltose purity of 98% or higher, produced by Hayashibara Co., Ltd., Okayama, Japan, was used.

[5] = Crystal moisture content (Karl Fischer) on moisture absorption and drying
Protocol: Hydrous crystalline saccharides were prepared from the respective porous anhydrous crystalline saccharide using the porous anhydrous crystalline trehalose, obtained by treating at 70° C. for 60 min in Example 1, and the porous anhydrous crystalline maltose, obtained by treating at 70° C. for 480 min in Example 3, as materials. About 50 g of the porous anhydrous crystalline saccharide and about 150 ml of deionized water were placed in respective container. Then, the both open containers were placed in the same closed vessel and leaved to stand at 27° C. for two days. By the treatment, the anhydrous crystalline saccharide was allowed to absorb moisture and converted into hydrous crystal. The resulting hydrous crystal was dried in a drying machine at 50° C. for one hour to remove excess moisture. The moisture contents of the porous anhydrous crystalline trehalose and the porous anhydrous crystalline maltose before and after the treatment to absorb moisture and after drying are in Table 6. The moisture content of crystals was measured by the conventional Karl Fischer's method.

[6] = Flax seed oil powder: keeping of powdery form; settings: 1 part flax seed oil + 10 parts saccharide as base; listed as control hydrous crystalline trehalose
Protocol: One part by weight of flax seed oil was admixed with 10 parts by weight of the porous anhydrous crystalline trehalose, prepared by treating at 70° C. for 60 min in Example 1, and then the mixture was kneaded to make into a powdery product. In the same manner, powdery products were prepared by using “TREHA®”, hydrous crystalline trehalose commercialized by Hayashibara Shoji Inc., Okayama, Japan, and anhydrous crystalline trehalose, prepared from hydrous crystalline trehalose by drying in vacuo at a high temperature according to the conventional method, as controls. […] The flaxseed oil powder can be preferably used as a supplement.

[7] = listed as porous anhydrous crystalline maltose
[8] = listed as Porous anhydrous crystalline β-maltose (Present invention)
[9] = listed as porous hydrous crystalline maltose
[10] = listed as Porous hydrous crystalline β-maltose (Present invention)

| Intrusion volume [1] | Median pore diameter [1] | Oil-keeping ability [2] | Time required for dissolution, No. 1 [3] | Time required for dissolution, No. 2 [3] | Time required for dissolution, No. 3 [3] | Time required for dissolution, No. 4 [3] | Time required for dissolution, No. 5 [3] | Time required for dissolution, Average [3] | Specific surface area [4] | Compound | further results |
| --- | --- | --- | --- | --- | --- | --- | --- | --- | --- | --- | --- |
| (No pore) | 13.00 μm | 41.7 | 37 s | 35 s | 39 s | 38 s | 36 s | 37 s | 0.48 m^2/g | OC[C@H]1O[C@H](O[C@H]2[C@H](O)[C@@H](O)C(O)O[C@@H]2CO)[C@H](O)[C@@H](O)[C@@H]1O (mixture of isomers) [Anhydrous crystalline α-maltose (Control)] [reference compound] | Specific surface area ([4]; listed as anhydrous crystalline α-maltose): 0.48 m^2/g |
| (No pore) | 14.70 μm | 40 |  |  |  |  |  |  | 0.82 m^2/g | OC[C@H]1O[C@H](O[C@H]2[C@H](O)[C@@H](O)C(O)O[C@@H]2CO)[C@H](O)[C@@H](O)[C@@H]1O (mixture of isomers) [Anhydrous crystalline β-maltose (Control)] [reference compound] | Specific surface area ([4]; listed as anhydrous crystalline β-maltose): 0.82 m^2/g |
| (No pore) | 11.20 μm |  | 118 s | 113 s | 114 s | 119 s | 116 s | 116 s | 0.46 m^2/g | OC[C@H]1O[C@H](O[C@H]2[C@H](O)[C@@H](O)C(O)O[C@@H]2CO)[C@H](O)[C@@H](O)[C@@H]1O (mixture of isomers) [Hydrous crystalline β-maltose (Control), maltose] | Oil-keeping ability ([2]; listed as Hydrous crystalline maltose (Control)): 45.5; Specific surface area ([4]; listed as control hydrous crystalline β-maltose): 0.46 m^2/g; Specific surface area ([4]; listed as hydrous crystalline β-maltose): 0.46 m^2/g |
| 1.05 mL/g | 1.26 μm |  |  |  |  |  |  |  | 3.39 m^2/g | OC[C@H]1O[C@H](O[C@H]2[C@H](O)[C@@H](O)C(O)O[C@@H]2CO)[C@H](O)[C@@H](O)[C@@H]1O (mixture of isomers) [Porous anhydrous crystalline maltose, maltose] | Pore diameter of clear peak in pore size distribution chart [1]: less than 5 μm; Intrusion volume [1, 7]: 1.05 mL/g; Crystal moisture content, after drying ([5]; after moisture absorption and drying at 50° C. for one hour): 5.14 %, w/w; Crystal moisture content, before treatment ([5]; before moisture absorption): 0.32 %, w/w; Crystal moisture content, after treatment ([5]; closed vessel with water, 27° C., two days): 7.35 %, w/w; Oil-keeping ability [2, 8]: 143; Oil-keeping ability ([2]; listed as porous anhydrous crystalline β-maltose): 143; Oil-keeping ability relative to control ([2]; compared with control crystalline saccharide): about 3 folds; Time required for dissolution, No. 1 [3, 8]: 30 s; Time required for dissolution, No. 2 [3, 8]: 31 s; Time required for dissolution, No. 3 [3, 8]: 33 s; Time required for dissolution, No. 4 [3, 8]: 29 s; Time required for dissolution, No. 5 [3, 8]: 32 s; Time required for dissolution, Average [3, 8]: 31 s; Dissolution in cold water in comparison with controls [3]: rapidly dissolved in cold water; Specific surface area [4, 7]: 3.39 m^2/g |
| 0.77 mL/g | 2.82 μm |  |  |  |  |  |  |  | 1.39 m^2/g | OC[C@H]1O[C@H](O[C@H]2[C@H](O)[C@@H](O)C(O)O[C@@H]2CO)[C@H](O)[C@@H](O)[C@@H]1O (mixture of isomers) [Porous hydrous crystalline maltose, maltose] | Pore diameter of clear peak in pore size distribution chart [1]: less than 5 μm; Intrusion volume [1, 9]: 0.77 mL/g; Time required for dissolution, No. 1 [3, 10]: 67 s; Time required for dissolution, No. 2 [3, 10]: 66 s; Time required for dissolution, No. 3 [3, 10]: 64 s; Time required for dissolution, No. 4 [3, 10]: 68 s; Time required for dissolution, No. 5 [3, 10]: 65 s; Time required for dissolution, Average [3, 10]: 66 s; Dissolution in cold water in comparison with controls [3]: rapidly dissolved in cold water; Specific surface area relative to control crystalline saccharide ([4]; compared with control(s)): about 3 folds; Specific surface area [4, 9]: 1.39 m^2/g |

| Compound | Intrusion volume [1] | Median pore diameter [1] | Oil-keeping ability [2] | Time required for dissolution, No. 1 [3] | Time required for dissolution, No. 2 [3] | Time required for dissolution, No. 3 [3] | Time required for dissolution, No. 4 [3] | Time required for dissolution, No. 5 [3] | Time required for dissolution, Average [3] | Specific surface area [4] | further results |
| --- | --- | --- | --- | --- | --- | --- | --- | --- | --- | --- | --- |
| OC[C@H]1O[C@H](O[C@H]2O[C@H](CO)[C@@H](O)[C@H](O)[C@H]2O)[C@H](O)[C@@H](O)[C@@H]1O [Hydrous crystalline trehalose (Control), α-D-glucosyl α-D-glucoside] |  |  | 38.5 | 106 s | 130 s | 121 s | 135 s | 123 s | 123 s |  | Oil-keeping ability ([2]; listed as control hydrous crystalline trehalose): 38.5; Powdery form of flax seed oil powder [6]: could not keep powdery forms |
| OC[C@H]1O[C@H](O[C@H]2O[C@H](CO)[C@@H](O)[C@H](O)[C@H]2O)[C@H](O)[C@@H](O)[C@@H]1O [Porous anhydrous crystalline trehalose (treated at 50° C. fo] [α-D-glucosyl α-D-glucoside] | 0.22 mL/g | 0.21 μm |  |  |  |  |  |  |  | 3.306 m^2/g | Mode pore diameter [1]: 0.29 μm; Remarks (pores) [1]: Having clear pores |
